From patent US10273248B2, “Glucose uptake inhibitors” (Kadmon Corporation LLC, priority 2015, dated 2019)
Structures can show the parent of a compound that is named as a salt.

The molecules below were run on glycolysis in HT1080 cells (assay: Glycolysis assay: oligomycin plus compound, cellular ATP by Cell Titer Glo). Conditions: 10 μM oligomycin, one hour, class symbols.
Assay type: cell-based
In short: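 Confluent HT1080 cells treated 1 h with compound plus 10 μM oligomycin to block mitochondrial ATP, so remaining ATP reflects glycolysis. Cellular ATP read by Cell Titer-Glo luminescence; IC50 derived from dose-response curves.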

IC50	SMILES
10 to 100 nM	O=C(Nc1cccc(-c2nc(Nc3ccc(-c4cn[nH]c4)cc3)c3sccc3n2)c1)c1cccnc1 [Example 178, N-(3-(4-((4-(1H-pyrazol-4-yl)phenyl)amino)thieno[3,2-d]pyrimidin-2-yl)phenyl)nicotinamide]

Same assay, conditions: Homo sapiens, HT-1080, 1 h, 10 μM oligomycin, one hour, class symbols

SMILES	IC50
CC(C)NC(=O)COc1cccc(-c2nc(Nc3ccc(-c4cn[nH]c4)cc3)c3c(cnn3C)n2)c1 [Example 58, 2-(3-(7-((4-(1H-pyrazol-4-yl)phenyl)amino)-1-methyl-1H-pyrazolo[4,3-d]pyrimidin-5-yl)phenoxy)-N-isopropylacetamide]	> 1000 nM
O=C(COc1cccc(-c2nc3c(c(Nc4ccc(-c5cn[nH]c5)cc4)n2)COC3)c1)N1CCOCC1 [Example 37, 2-(3-(4-((4-(1H-pyrazol-4-yl)phenyl)amino)-5,7-dihydrofuro[3,4-d]pyrimidin-2-yl)phenoxy)-1-morpholinoethan-1-one]	> 1000 nM
Cn1cnc2c(Nc3ccc4[nH]ncc4c3)nc(-c3cccc(NC(=O)CN4CCOCC4)c3)nc21 [Example 14]	> 1000 nM
O=C(COc1cccc(-c2nc(Nc3ccc(-c4cn[nH]c4)cc3)c3ncccc3n2)c1)NC1CCC1 [Example 49, 2-(3-(4-((4-(1H-pyrazol-4-yl)phenyl)amino)pyrido[3,2-d]pyrimidin-2-yl)phenoxy)-N-cyclobutylacetamide]	101 to 250 nM
CNC(=O)COc1cccc(-c2nc(Nc3ccc(-c4cn[nH]c4)cc3)c3sccc3n2)c1 [Example 40, 2-(3-(4-((4-(1H-pyrazol-4-yl)phenyl)amino)thieno[3,2-d]pyrimidin-2-yl)phenoxy)-N-methylacetamide]	> 1000 nM
CCCNC(=O)COc1cccc(-c2nc(Nc3ccc(-c4cn[nH]c4)cc3)c3sccc3n2)c1 [Example 41, 2-(3-(4-((4-(1H-pyrazol-4-yl)phenyl)amino)thieno[3,2-d]pyrimidin-2-yl)phenoxy)-N-propylacetamide]	> 1000 nM
O=C(COc1cccc(-c2nc(Nc3ccc(-c4cn[nH]c4)cc3)c3ccsc3n2)c1)NC1CCC1 [Example 27]	101 to 250 nM
O=C(CN1CCOCC1)Nc1cccc(-c2nc(Nc3ccc(-c4cn[nH]c4)cc3)c3sccc3n2)c1 [Example 8, N-(3-(4-((4-(1H-pyrazol-4-yl)phenyl)amino)thieno[3,2-d]pyrimidin-2-yl)phenyl)-2-morpholinoacetamide]	> 1000 nM
CC(C)NC(=O)COc1cccc(-c2nc(Nc3ccc4[nH]ncc4c3)c3ncn(C)c3n2)c1 [Example 13]	> 1000 nM
CC(C)CNC(=O)COc1cccc(-c2nc(Nc3ccc(-c4cn[nH]c4)cc3)c3cnn(C)c3n2)c1 [Example 57, 2-(3-(4-((4-(1H-pyrazol-4-yl)phenyl)amino)-1-methyl-1H-pyrazolo[3,4-d]pyrimidin-6-yl)phenoxy)-N-isobutylacetamide]	101 to 250 nM
O=C(CN1CCOCC1)Nc1cccc(-c2nc(Nc3ccc4[nH]ncc4c3)c3sccc3n2)c1 [Example 16]	> 1000 nM
CC(C)NC(=O)COc1cc(F)cc(-c2nc(Nc3ccc(-c4cn[nH]c4)cc3)c3sccc3n2)c1 [Example 34]	> 1000 nM
CC(C)NC(=O)COc1cccc(-c2nc(Nc3ccc(-c4cn[nH]c4)cc3)c3ccsc3n2)c1 [Example 9, 2-(3-(4-((4-(1H-pyrazol-4-yl)phenyl)amino)thieno[2,3-d]pyrimidin-2-yl)phenoxy)-N-isopropylacetamide]	101 to 250 nM

Continued, values first:

IC50	SMILES
10 to 100 nM	CC(=O)N1Cc2nc(-c3cccc(OCC(=O)NC(C)(C)C)c3)nc(Nc3ccc(-c4cn[nH]c4)cc3)c2C1 [Example 142, 2-(3-(4-((4-(1H-pyrazol-4-yl)phenyl)amino)-6-acetyl-6,7-dihydro-5H-pyrrolo[3,4-d]pyrimidin-2-yl)phenoxy)-N-(tert-butyl)acetamide]
> 1000 nM	CC(C)NC(=O)COc1cc(-c2nc3c(c(Nc4ccc(-c5cn[nH]c5)cc4)n2)COC3)ccc1F [Example 95, 2-(5-(4-((4-(1H-pyrazol-4-yl)phenyl)amino)-5,7-dihydrofuro[3,4-d]pyrimidin-2-yl)-2-fluorophenoxy)-N-isopropylacetamide]
10 to 100 nM	CC(=O)N1CCc2nc(-c3cccc(OCC(=O)NCC(C)C)c3)nc(Nc3ccc(-c4cn[nH]c4)cc3)c2C1 [Example 146, 2-(3-(4-((4-(1H-pyrazol-4-yl)phenyl)amino)-6-acetyl-5,6,7,8-tetrahydropyrido[4,3-d]pyrimidin-2-yl)phenoxy)-N-isobutylacetamide]
101 to 250 nM	CC(=O)N1CCc2nc(-c3cccc(OCC(=O)NC(C)C)c3)nc(Nc3ccc(-c4cn[nH]c4)cc3)c2C1 [Example 112, 2-(3-(4-((4-(1H-pyrazol-4-yl)phenyl)amino)-6-acetyl-5,6,7,8-tetrahydropyrido[4,3-d]pyrimidin-2-yl)phenoxy)-N-isopropylacetamide]
> 1000 nM	CCC(C)NC(=O)C(C)Oc1cccc(-c2nc3c(c(Nc4ccc(-c5cn[nH]c5)cc4)n2)COC3)c1 (stereo not shown) [Example 187, 2-(3-(4-((4-(1H-pyrazol-4-yl)phenyl)amino)-5,7-dihydrofuro[3,4-d]pyrimidin-2-yl)phenoxy)-N-(sec-butyl)propanamide]
10 to 100 nM	CCC(CC)NC(=O)COc1cccc(-c2nc3c(c(Nc4ccc(-c5cn[nH]c5)cc4)n2)CN(C(C)=O)C3)c1 [Example 141, 2-(3-(4-((4-(1H-pyrazol-4-yl)phenyl)amino)-6-acetyl-6,7-dihydro-5H-pyrrolo[3,4-d]pyrimidin-2-yl)phenoxy)-N-(pentan-3-yl)acetamide]
10 to 100 nM	CC(C)C(=O)N1CCc2nc(-c3cccc(OCC(=O)NC(C)(C)C)c3)nc(Nc3ccc(-c4cn[nH]c4)cc3)c2C1 [Example 151, 2-(3-(4-((4-(1H-pyrazol-4-yl)phenyl)amino)-6-isobutyryl-5,6,7,8-tetrahydropyrido[4,3-d]pyrimidin-2-yl)phenoxy)-N-(tert-butyl)acetamide]
101 to 250 nM	CC(C)(C)NC(=O)COc1cccc(-c2nc(Nc3ccc(-c4cn[nH]c4)cc3)c3sccc3n2)c1 [Example 110, 2-(3-(4-((4-(1H-pyrazol-4-yl)phenyl)amino)thieno[3,2-d]pyrimidin-2-yl)phenoxy)-N-(tert-butyl)acetamide]
> 1000 nM	Cn1ncc2nc(-c3cccc(OCC(=O)NC4CCC4)c3)nc(Nc3ccc(-c4cn[nH]c4)cc3)c21 [Example 59, 2-(3-(7-((4-(1H-pyrazol-4-yl)phenyl)amino)-1-methyl-1H-pyrazolo[4,3-d]pyrimidin-5-yl)phenoxy)-N-cyclobutylacetamide]
101 to 250 nM	O=C(COc1cccc(-c2nc3c(c(Nc4ccc(-c5cn[nH]c5)cc4)n2)CSC3)c1)NC1CCC1 [Example 86, 2-(3-(4-((4-(1H-pyrazol-4-yl)phenyl)amino)-5,7-dihydrothieno[3,4-d]pyrimidin-2-yl)phenoxy)-N-cyclobutylacetamide]
10 to 100 nM	CCC(C)(C)NC(=O)COc1cccc(-c2nc(Nc3ccc(-c4cn[nH]c4)cc3)c3ccncc3n2)c1 [Example 165, 2-(3-(4-((4-(1H-pyrazol-4-yl)phenyl)amino)pyrido[3,4-d]pyrimidin-2-yl)phenoxy)-N-(tert-pentyl)acetamide]
501 to 1000 nM	Cc1cncc(CNc2cccc(-c3nc4c(c(Nc5ccc(-c6cn[nH]c6)cc5)n3)COC4)c2)c1 [Example 94, N-(4-(1H-pyrazol-4-yl)phenyl)-2-(3-(((5-methylpyridin-3-yl)methyl)amino)phenyl)-5,7-dihydrofuro[3,4-d]pyrimidin-4-amine]
> 1000 nM	CC(C)NC(=O)C(C)Oc1cccc(-c2nc3c(c(Nc4ccc(-c5cn[nH]c5)cc4)n2)COC3)c1 (stereo not shown) [Example 185, 2-(3-(4-((4-(1H-pyrazol-4-yl)phenyl)amino)-5,7-dihydrofuro[3,4-d]pyrimidin-2-yl)phenoxy)-N-isopropylpropanamide]
10 to 100 nM	O=C(COc1cccc(-c2nc3c(c(Nc4ccc(-c5cn[nH]c5)cc4)n2)COCC3)c1)NC1CCC1 [Example 109, 2-(3-(4-((4-(1H-pyrazol-4-yl)phenyl)amino)-7,8-dihydro-5H-pyrano[4,3-d]pyrimidin-2-yl)phenoxy)-N-cyclobutylacetamide]
10 to 100 nM	CC(C)(C)NC(=O)COc1cccc(-c2nc3c(c(Nc4ccc(-c5cn[nH]c5)cc4)n2)COC3)c1 [Example 70, 2-(3-(4-((4-(1H-pyrazol-4-yl)phenyl)amino)-5,7-dihydrofuro[3,4-d]pyrimidin-2-yl)phenoxy)-N-(tert-butyl)acetamide dihydrochloride]
> 1000 nM	CC(C)NC(=O)COc1cncc(-c2nc(Nc3ccc(-c4cn[nH]c4)cc3)c3ccsc3n2)c1 [Example 182, 2-((5-(4-((4-(1H-pyrazol-4-yl)phenyl)amino)thieno[2,3-d]pyrimidin-2-yl)pyridin-3-yl)oxy)-N-isopropylacetamide]
> 1000 nM	CC(C)CNC(=O)C(C)Oc1cccc(-c2nc3c(c(Nc4ccc(-c5cn[nH]c5)cc4)n2)COC3)c1 (stereo not shown) [Example 186, 2-(3-(4-((4-(1H-pyrazol-4-yl)phenyl)amino)-5,7-dihydrofuro[3,4-d]pyrimidin-2-yl)phenoxy)-N-isobutylpropanamide]
501 to 1000 nM	CCC(CC)NC(=O)COc1cccc(-c2nc3c(c(Nc4ccc(-c5cn[nH]c5)cc4)n2)CN(CC)CC3)c1 [Example 118, 2-(3-(4-((4-(1H-pyrazol-4-yl)phenyl)amino)-6-ethyl-5,6,7,8-tetrahydropyrido[4,3-d]pyrimidin-2-yl)phenoxy)-N-(pentan-3-yl)acetamide]

Same assay, conditions: Homo sapiens, HT-1080, 1 h, 10 μM oligomycin, one hour, number printed instead of class

IC50	SMILES
290 nM	CC(C)N1CCc2nc(-c3cccc(OCC(=O)NCC(C)(C)C)c3)nc(Nc3ccc(-c4cn[nH]c4)cc3)c2C1 [Example 169, 2-(3-(4-((4-(1H-pyrazol-4-yl)phenyl)amino)-6-isopropyl-5,6,7,8-tetrahydropyrido[4,3-d]pyrimidin-2-yl)phenoxy)-N-neopentylacetamide]

Same assay, conditions: one hour, alone

SMILES	cellular ATP levels, agent alone
CC[C@H]1/C=C/C=C/C[C@@H](C)[C@H](O)[C@@](C)(O)C(=O)[C@@H](C)[C@H](O)[C@@H](C)C(=O)[C@@H](C)[C@H](O)[C@@H](C)/C=C/C(=O)O[C@@H]2[C@H](C)[C@H](CC1)O[C@]1(CC[C@H](C)[C@H](C[C@@H](C)O)O1)[C@H]2C [oligomycin, Oligomycin, reference compound]	neither oligomycin alone nor control GLUT1 inhibitors substantially decrease cellular ATP levels
